Biological target: AmpC β-lactamase (Escherichia coli, UniProt P00811)
Assay: biochemical
Assay type: biochemical

Chain of AmpC β-lactamase (P00811 20-377): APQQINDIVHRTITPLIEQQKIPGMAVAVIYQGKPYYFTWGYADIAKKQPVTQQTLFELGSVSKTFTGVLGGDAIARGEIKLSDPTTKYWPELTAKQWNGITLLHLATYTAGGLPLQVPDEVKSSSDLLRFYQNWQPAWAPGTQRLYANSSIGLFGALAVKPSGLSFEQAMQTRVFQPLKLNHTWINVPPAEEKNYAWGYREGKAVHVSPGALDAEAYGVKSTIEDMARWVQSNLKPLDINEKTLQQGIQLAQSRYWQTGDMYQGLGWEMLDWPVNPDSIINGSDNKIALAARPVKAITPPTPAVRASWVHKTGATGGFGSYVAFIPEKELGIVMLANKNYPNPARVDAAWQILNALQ

Row | SMILES | increase of affinity for AmpC compared to non-carboxylate analog (4-carboxy derivative vs non-carboxylate analog (6–9, 1)) | Ki [nM]
1 | Cc1noc(C)c1S(=O)(=O)Nc1cc(B(O)O)ccc1C(=O)O [compound 12] | performed worse with respect to its analog | 
2 | O=C(O)c1ccc(C(=O)Nc2cccc(S(=O)(=O)Nc3cc(B(O)O)ccc3C(=O)O)c2)cc1 [compound 13] |  | 100
